In ChEMBL document CHEMBL1799932, “Antimalarial pyrido[1,2-a]benzimidazoles” (J Med Chem, 2011):
pIC50: −log10 of the molar value. Activity calls are given as the source filed them. No cut-off for these calls is given here.

Columns and labels:
[1] = system: Plasmodium falciparum; test: microbe, parasite or virus in culture; details: K1
Description: (§1) Antimalarial activity against multidrug-resistant Plasmodium falciparum K1 infected in human red blood cells assessed as 3H-hypoxanthine incorporation after 48 hrs by liquid scintillation counting

[2] = system: Plasmodium falciparum; test: microbe, parasite or virus in culture; details: HB3
Description: Antimalarial activity against Plasmodium falciparum HB3

[3] = system: Plasmodium falciparum; test: microbe, parasite or virus in culture; details: FCR-3/Gambia
Description: Antimalarial activity against Plasmodium falciparum FCR3

[4] = system: Plasmodium falciparum; test: microbe, parasite or virus in culture; details: Mad20/Papua New Guinea
Description: Antimalarial activity against Plasmodium falciparum Mad20

[5] = Selectivity index, ratio IC50 for rat L6 cells to IC50 for multidrug-resistant Plasmodium falciparum K1 infected in human red blood cells; type: functional
[6] = system: L6; test: Cytotoxicity at rat L6 cells after 72 hrs by microplate alamar blue assay; type: cell-based
[7] = system: Plasmodium falciparum; test: Ratio IC50 for chloroquine to compound for multidrug-resistant Plasmodium falciparum K1; type: functional
[8] = Distribution coefficient, log D of the compound at pH 7.4; type: physicochemical; details: octanol/water
[9] = system: Plasmodium falciparum; test: microbe, parasite or virus in culture; details: W2, 48 h
[10] = system: Plasmodium falciparum; test: microbe, parasite or virus in culture; details: NF54
Description: Antimalarial activity against Plasmodium falciparum NF54

[11] = system: Plasmodium falciparum; test: microbe, parasite or virus in culture; details: FC27/Papua New Guinea
Description: Antimalarial activity against Plasmodium falciparum FC27

[12] = system: Plasmodium falciparum; test: microbe, parasite or virus in culture; details: K1; remark: listed apart in the source
Description: Antimalarial activity against Plasmodium falciparum K1

[13] = system: Plasmodium berghei; test: Antimalarial activity against GFP-transfected Plasmodium berghei strain ANKA infected in NMRI mouse assessed as reduction in parasitemia at 50 mg/kg, po administered as single dose measured on day 2 by FACS analysis; type: functional; parameters: scale not given: the % may be the effect or the level left
[14] = Metabolic stability in mouse liver microsomes assessed as intrinsic clearance per mg protein after 60 mins by LC-MS analysis; type: ADME, Microsome
[15] = Metabolic stability in human liver microsomes assessed as intrinsic clearance per mg protein after 60 mins by LC-MS analysis; type: ADME, Microsome
[16] = Metabolic stability in rat liver microsomes assessed as intrinsic clearance per mg protein after 60 mins by LC-MS analysis; type: ADME, Microsome
[17] = system: Plasmodium berghei; test: Antimalarial activity against GFP-transfected Plasmodium berghei strain ANKA infected in NMRI mouse assessed as reduction in parasitemia at 50 mg/kg, po administered as single dose measured on day 3 by FACS analysis; type: functional; parameters: scale not given: the % may be the effect or the level left
[18] = system: Plasmodium berghei; test: Antimalarial activity against GFP-transfected Plasmodium berghei strain ANKA infected in NMRI mouse assessed as reduction in parasitemia at 50 mg/kg, po administered as single dose measured on day 4 by FACS analysis; type: functional; parameters: scale not given: the % may be the effect or the level left
[19] = system: Plasmodium berghei; test: Antimalarial activity against GFP-transfected Plasmodium berghei strain ANKA infected in NMRI mouse assessed as reduction in parasitemia at 50 mg/kg, po administered as single dose measured on day 5 by FACS analysis; type: functional; parameters: scale not given: the % may be the effect or the level left
[20] = system: Plasmodium berghei; test: Antimalarial activity against GFP-transfected Plasmodium berghei strain ANKA infected in NMRI mouse assessed as reduction in parasitemia at 25 mg/kg, po administered as single dose measured on day 2 by FACS analysis; type: functional; parameters: scale not given: the % may be the effect or the level left
[21] = system: Plasmodium berghei; test: Antimalarial activity against GFP-transfected Plasmodium berghei strain ANKA infected in NMRI mouse assessed as reduction in parasitemia at 25 mg/kg, po administered as single dose measured on day 3 by FACS analysis; type: functional; parameters: scale not given: the % may be the effect or the level left
[22] = system: Plasmodium berghei; test: Antimalarial activity against GFP-transfected Plasmodium berghei strain ANKA infected in NMRI mouse assessed as reduction in parasitemia at 25 mg/kg, po administered as single dose measured on day 4 by FACS analysis; type: functional; parameters: scale not given: the % may be the effect or the level left
[23] = system: Plasmodium berghei; test: Antimalarial activity against GFP-transfected Plasmodium berghei strain ANKA infected in NMRI mouse assessed as reduction in parasitemia at 25 mg/kg, po administered as single dose measured on day 5 by FACS analysis; type: functional; parameters: scale not given: the % may be the effect or the level left
[24] = Metabolic stability in human liver microsomes assessed as degradation half life after 60 mins by LC-MS analysis; type: ADME, Microsome
[25] = Metabolic stability in rat liver microsomes assessed as degradation half life after 60 mins by LC-MS analysis; type: ADME, Microsome
[26] = Metabolic stability in mouse liver microsomes assessed as degradation half life after 60 mins by LC-MS analysis; type: ADME, Microsome
[27] = system: Plasmodium berghei; test: Antimalarial activity against GFP-transfected Plasmodium berghei strain ANKA infected in NMRI mouse assessed as increase in mean survival time at 25 mg/kg, po administered as single dose (reference value: 5 days )
[28] = system: Plasmodium berghei; test: Antimalarial activity against GFP-transfected Plasmodium berghei strain ANKA infected in NMRI mouse assessed as increase in mean survival time at 50 mg/kg, po administered as single dose (reference value: 5 days )
[29] = system: Plasmodium berghei; test: Antimalarial activity against GFP-transfected Plasmodium berghei strain ANKA infected in NMRI mouse assessed as complete cure from parasite infection at 3 to 50 mg/kg, po administered as multiple dose for 4 days measured 24 hrs after last treatment; type: functional, organism-based
[30] = system: Plasmodium berghei; test: Antimalarial activity against GFP-transfected Plasmodium berghei strain ANKA infected in NMRI mouse assessed as reduction in parasitemia at 50 mg/kg/day, ip administered for 4 consecutive days measured 24 hrs after last treatment by FACS analysis relative to control; type: functional; parameters: scale not given: the % may be the effect or the level left; details: route intraperitoneal
[31] = system: Plasmodium berghei; test: Antimalarial activity against GFP-transfected Plasmodium berghei strain ANKA infected in NMRI mouse assessed as increase in median survival time at 50 mg/kg/day, ip administered for 4 days measured up to 30 days post infection (reference value: 5 to 7 days); type: functional; details: route intraperitoneal
[32] = system: Plasmodium berghei; test: Antimalarial activity against GFP-transfected Plasmodium berghei strain ANKA infected in NMRI mouse assessed as reduction in parasitemia at 100 mg/kg/day, po administered for 4 consecutive days measured 24 hrs after last treatment by FACS analysis relative to control; type: functional; parameters: scale not given: the % may be the effect or the level left
[33] = system: Plasmodium berghei; test: Antimalarial activity against GFP-transfected Plasmodium berghei strain ANKA infected in NMRI mouse assessed as increase in median survival time at 100 mg/kg/day, po administered for 4 days measured up to 30 days post infection (reference value: 5 to 7 days); type: functional
[34] = system: Plasmodium falciparum
Description: as §1

[35] = system: Plasmodium falciparum; test: Antimalarial activity against Plasmodium falciparum GHA; type: functional, organism-based
[36] = system: Plasmodium falciparum; test: Antimalarial activity against Plasmodium falciparum W2; type: functional, organism-based

`C[C@@H]1CC[C@H]2[C@@H](C)C(=O)O[C@@H]3O[C@@]4(C)CC[C@@H]1[C@]32OO4` [ARTEMISININ] gave a pIC50 [1] of 8.22, a pIC50 [2] of 8.52 and a pIC50 [3] of 8.30. It also gave a pIC50 [4] of 8.10.
For `N#Cc1c(-c2ccccc2)cc(NCCN)n2c1nc1ccccc12`, the “Ratio IC50” value [5] was 4.2, the pIC50 ([6]; Rattus norvegicus, L6, 72 h) was 4.72 and the “Ratio IC50” value [7] was 22. The logD [8] was 0.83 and the pIC50 [1] was 5.35.
For `CCN(CC)CCNc1cc(-c2ccc(C(F)(F)F)cc2)c(C#N)c2nc3ccccc3n12`, the “Ratio IC50” value [5] was 612, the pIC50 ([6]; l6) was 4.54 and the “Ratio IC50” value [7] was 3.5. It also gave a logD [8] of 2.94, a pIC50 [1] of 7.33 and a pIC50 [9] of 7.08. For the same compound, the pIC50 [2] was 7.22, the pIC50 [10] was 6.96 and the pIC50 [11] was 6.76. For the same compound, the pIC50 [3] was 6.86, the pIC50 [4] was 6.98 and the pIC50 [12] was 7.33.
Compound `Cl.N#Cc1c(-c2ccc(C(F)(F)F)cc2)cc(NCCN2CCCC2)n2c1nc1ccccc12` has an Activity [13] of 14.04%, a microsomal CLint [14] of 25.6 µL/min/mg and a microsomal CLint [15] of 88.4 µL/min/mg. The microsomal CLint [16] was 25.8 µL/min/mg, the Activity [17] was 47.92% and the Activity [18] was 73.01%. For the same compound, the Activity [19] was 88.53%, the Activity [20] was 14.75% and the Activity [21] was 43.2%. The Activity [22] was 63.73%, the Activity [23] was 63.72% and the half-life [24] was 19.6 min. For the same compound, the half-life [25] was 67.2 min, the half-life [26] was 67.6 min and the MSD [27] was 7.7 days. The MSD [28] was 5 days.
With `CCc1nc(N)nc(N)c1-c1ccc(Cl)cc1` [PYRIMETHAMINE] the pIC50 [9] was 4.53, the pIC50 [2] was 5.94 and the pIC50 [10] was 7.72. It also gave a pIC50 [11] greater than 7.22, a pIC50 [3] of 7.92 and a pIC50 [4] greater than 7.22. It also gave a pIC50 [12] of 5.00.
For `CCNCCNc1cc(-c2ccc(C(F)(F)F)cc2)c(C#N)c2nc3ccccc3n12` [listing 1 of 2 here], the Activity [29] was “inactive”.
`Cl.N#Cc1c(-c2ccc(C(F)(F)F)cc2)cc(NCCCN2CCOCC2)n2c1nc1ccccc12` gave a microsomal CLint [14] of 87 µL/min/mg, a microsomal CLint [15] of 166 µL/min/mg and a microsomal CLint [16] of 234 µL/min/mg. For the same compound, the half-life [24] was 10.4 min, the half-life [25] was 7.4 min and the half-life [26] was 19.9 min.
In the case of `OC(c1cc(C(F)(F)F)nc2c(C(F)(F)F)cccc12)C1CCCCN1` (stereo not given) [MEFLOQUINE], the pIC50 [10] was 7.89, the pIC50 [11] was greater than 7.40 and the pIC50 [4] was 7.89.
Work on `CCN(CC)CCCNc1cc(-c2ccc(C(F)(F)F)cc2)c(C#N)c2nc3ccccc3n12.Cl` yielded a pIC50 ([6]; l6) of 5.65, an Activity [30] of 72.6% and an MSD [31] of 9 days. For the same compound, the Activity [32] was 93.4%, the MSD [33] was 11 days and the pIC50 [34] was 6.80.
For `CCNCCNc1cc(-c2ccc(C(F)(F)F)cc2)c(C#N)c2nc3ccccc3n12` [listing 2 of 2 here], the “Ratio IC50” value [5] was 20.5, the pIC50 ([6]; Rattus norvegicus, L6, 72 h) was 5.61 and the logD [8] was 2.01. It also gave a pIC50 [1] of 6.92, a pIC50 [9] of 6.91 and a pIC50 [2] of 7.05. For the same compound, the pIC50 [10] was 6.96, the pIC50 [11] was 6.96 and the pIC50 [3] was 6.81. The pIC50 [4] was 6.97 and the pIC50 [12] was 6.94.
`N#Cc1c(-c2ccccc2)cc(N2CCNCC2)n2c1nc1ccccc12` showed a pIC50 [35] of 6.77, a pIC50 [36] of 6.77 and a pIC50 [12] of 6.77.
For `CCCc1cc(N2CCN(Cc3ccc(F)cc3)CC2)n2c(nc3ccccc32)c1C#N`, the pIC50 [10] was 7.28 and the pIC50 [12] was 7.64.
`Cc1cc(N2CCN(Cc3ccccc3)CC2)n2c(nc3ccccc32)c1C#N` showed a pIC50 [10] of 7.28 and a pIC50 [12] of 7.30.
`Cl.N#Cc1c(-c2ccc(C(F)(F)F)cc2)cc(NCCN2CCCCC2)n2c1nc1ccccc12` gave a microsomal CLint [14] of 29.1 µL/min/mg, a microsomal CLint [15] of 45.8 µL/min/mg and a microsomal CLint [16] of 27 µL/min/mg. The Activity [20] was 28.44%, the Activity [21] was 28.07% and the Activity [22] was 38.72%. The Activity [23] was 46.41%, the half-life [24] was 37.9 min and the half-life [25] was 64.2 min. The half-life [26] was 59.5 min and the MSD [27] was 12.7 days.
Compound `Cl.N#Cc1c(-c2ccc(C(F)(F)F)cc2)cc(NCCN2CCOCC2)n2c1nc1ccccc12` has a microsomal CLint [14] of 65.2 µL/min/mg, a microsomal CLint [15] of 109 µL/min/mg and a microsomal CLint [16] of 108 µL/min/mg. It also gave a half-life [24] of 15.9 min, a half-life [25] of 16 min and a half-life [26] of 26.6 min.
For `CCN(CC)CCNc1cc(-c2ccc(C(F)(F)F)cc2)c(C#N)c2nc3ccccc3n12.CS(=O)(=O)O`, the pIC50 ([6]; l6) was 3.91, the Activity [30] was 95.2% and the MSD [31] was 11 days. It also gave an Activity [32] of 97.4%, an MSD [33] of 11 days and a pIC50 [34] of 7.05.
`CN(C)CCNc1cc(-c2ccc(C(F)(F)F)cc2)c(C#N)c2nc3ccccc3n12.Cl` showed a pIC50 ([6]; l6) of 3.83, an Activity [30] of 0% and a pIC50 [34] of 7.00.
`CN(C)CCNc1cc(-c2ccc(C(F)(F)F)cc2)c(C#N)c2nc3ccccc3n12.CS(=O)(=O)O` showed a pIC50 ([6]; l6) of less than 3.76, an Activity [30] of 94.1% and an MSD [31] of 11 days. It also gave an Activity [32] of 96.8%, an MSD [33] of 13.7 days and a pIC50 [34] of 6.85.
